Test results: paper PMC11098465, “A comparative analysis of peptide-delivered antisense antibiotics using diverse nucleotide mimics” (RNA, 2024)

Columns and labels:
[1] = system: Salmonella outer membrane; assay: Outer membrane permeabilization (NPN fluorescence); type: cell-based, Salmonella enterica serovar Typhimurium strain SL1344; set-up: key to Outer membrane permeation: +++: Effect strength is represented by additional (+) signs.; ++: Effect strength is represented by additional (+) signs.; Effect strength is represented by additional (+) signs; conditions: for Outer membrane permeation: ASO conjugated to the carrier peptide, 10 µM, NPN fluorescence, summary grade; for Outer membrane permeabilization, NPN fluorescence (in words): KFF-ASOs 10 µM, CTAB 10 µM, PMXB 0.4 µM, added after 14 min
Excerpt: Because the negASOs are ineffective in bacterial cells despite their activity in cell-free systems, we investigated if these ASOs affected the ability of the KFF carrier peptide to induce OM permeabilization. Therefore, we used the hydrophobic fluorophore N-phenylnaphthylamine (NPN), a dye that turns fluorescent after binding to hydrophobic regions within cell membranes. This only occurs in cells with a compromised OM ([Ghosh et al. 2016]; [Ellis et al. 2019]). […] However, when conjugated to negASOs, the KFF carrier is unable to permeabilize the OM (Fig. 10). This could potentially be due to electrostatic interactions between the negASOs and the positively charged KFF.
The experiments were performed by modifying previously published protocols ([Ghosh et al. 2016]; [Ellis et al. 2019]; [Zheng et al. 2021]). Salmonella (WT SL1344, JVS-1574) were grown overnight in 4 mL MHB medium at 37°C (with shaking at 220 rpm). Then the culture was diluted 1:100 and grown until OD600 0.5 (∼2 × 10^8 cfu/mL). This culture was harvested and washed two times with 5 mM HEPES and further diluted to OD600 0.2 in 5 mM HEPES supplemented with 5 mM Glucose (pH 7.2). These cells were then incubated with NPN (Sigma) at a final concentration of 10 µM. One hundred and ninety microliters of NPN-treated cells were transferred into 96-well back plates with transparent bottoms and fluorescence (excitation = 350 nm, emission = 420 nm) was recorded for 60 min (reading was performed every minute) using a Synergy H1 plate reader (Biotek). On the 14th minute, 10 µL of the test compounds (10 µM final concentration) was added into the wells. CTAB (Sigma) 10 µM (final concentration) or PMXB (Sigma) (final concentration of 0.4 µM) were used as positive controls, while water was used as negative control. The fluorescence of the wells was monitored using the same settings as above. The plots were created using OrginPro 2023. The experiment was performed twice and Figure 10 is a representative example of two independent experiments.

Salmonella periplasm = assay: MALDI-TOF-based analysis of ASO-peptide conjugate uptake; type: cell-based; set-up: key to Uptake inside bacteria (MS): +++: Effect strength is represented by additional (+) signs.; ++: Effect strength is represented by additional (+) signs.; Effect strength is represented by additional (+) signs; conditions: 15 min; for Detection in the periplasmic fraction (in words): 10 µM KFF-ASO conjugates, MALDI MS; for Uptake inside bacteria (MS): ASO conjugated to the carrier peptide, 10 µM, MALDI-TOF of periplasm, summary grade
Protocol: Finally, to directly test if the ASO conjugates translocate into Salmonella, we used MALDI mass-spectrometry (MS) to identify ASO fragments in the bacterial periplasm after treatment with 10 µM KFF-ASO conjugates for 15 min (Table 2; Supplemental Figs. S7 and S8). […] This is in line with a study that reported that the KFF peptide is cleaved within the periplasm before translocation into the cytoplasm ([Yavari et al. 2021]). […] Importantly, none of the negASOs were detected in this subcellular fraction (Supplemental Fig. S8), likely explaining the lack of antibacterial effects against Salmonella.
The experiments were performed by modifying previously published protocols ([Yavari et al. 2021]). From an overnight culture of Salmonella, a second culture was inoculated (1:100) and grown to OD600 of 0.5 (corresponding to ∼2 × 10^8 cfu/mL). These bacterial cells were washed twice in MHB and resuspended in 95 µL of MHB with an additional incubation at 37°C for 5–10 min. Sterile ASO-peptide conjugates were prepared at concentrations of 200 µM. Five microliters of the 200 µM working solutions were added to 95 µL of bacteria in culture media, leading to a final concentration of the compounds of 10 µM. Five microliters of H2O was added as a negative control. The tubes were incubated at 37°C for 15 min with shaking at 300 rpm. Subsequently, they were centrifuged at 8000g for 5 min at 4°C. The supernatant was aspirated, and the pellet was washed with 0.01 M Tris-HCl before being resuspended in 200 µL of 0.01M Tris-HCl containing 0.5 M Sucrose, 150 µg/mL lysozyme, 10 mM EDTA and incubated at 37°C overnight. These tubes were then centrifuged at 2000g at 4°C for 10 min. The supernatant obtained represents the periplasm. The periplasm fragment was then mixed with 2,6-Dihydroxyacetophenone (DHAP) in ACN 1:1, spotted on a MALDI plate, and analyzed for MALDI-TOF-MS in a Bruker DaltonicsUltrafleXtreme Instrument. The experiment was performed two times, and data of one representative experiment are shown.

Row | Substance | Outer membrane permeation [1] | Outer membrane permeabilization, NPN fluorescence (in words) [1] | Detection in the periplasmic fraction (in words) (Salmonella periplasm) | Uptake inside bacteria (MS) (Salmonella periplasm) | Fragments detected (Salmonella periplasm; periplasm, 10 µM KFF-ASO conjugate, MALDI-TOF-MS)
1 | PMO: phosphorodiamidate morpholino 10mer ASO, sequence CTCATACTCT, targeting acpP −5 to +5 (all phosphorodiamidate morpholino (PMO)) | ++ | this ability is retained upon conjugation | detected in the periplasmic fraction | + | only the PMO fragment was observed in the periplasm
2 | PNA: peptide nucleic acid 10mer ASO, sequence CTCATACTCT, targeting acpP −5 to +5 (all peptide nucleic acid (PNA)) | ++ | this ability is retained upon conjugation | detected in the periplasmic fraction | + | 
